Data as given in patent US12059413B2, “Methods of inhibiting viruses using compositions targeting TSG101-ubiquitin interaction” (The Research Foundation for the State University of New York, priority 2016, dated 2024).

Columns and labels:
HIV-1 NL4-3 = experiment: Spreading infection of Jurkat cells infected with NL4-3, p24 capture ELISA; format: cell-based
Experimental: FIG. 16A-B. N16 inhibition of HIV-1 transmission in a spreading infection in Jurkat cells. A) Schematic diagram summarizing experimental protocol. Jurkat cells (triplicate samples of 5×10^5/well) were incubated for 2 hr with HIV-1 NL4-3 in treatment media containing 50 μM N16 or control vehicle (DMSO). At the end of this period, unbound virus was removed by centrifugation and the cells washed once, resuspended in fresh media and returned to the 37° C. incubator. For the next 15 days, tissue culture media was removed daily by centrifugation and saved for virus measurement by p24 capture ELISA and cells were replenished with fresh control or N16 treatment media. B) ELISA readings. In control media (containing DMSO), virus replication peaked at day 11; in the presence of N16, production peaked at 13 days. […] Cells were monitoring periodically for viability by Trypan Blue assay. To test their ability to produce virus after this sustained exposure, at day 15 the N16-treated cells were washed, fresh media without inhibitor was added and the cells were incubated 4 days longer (to day 19). The supernatant was collected, the cells were washed again and then incubated for another 4 days in media with inhibitor, adding fresh inhibitor daily. The final supernatant was collected on day 23. […] Thus, the cells maintained the ability to produce virus and the virus in the population at 15 days was essentially as susceptible to N16 as the initial virus population used to infect the Jurkat cells. Number of independent trials: n=2.
To investigate whether the ability to bind the UEV domain could affect Tsg101's function during HIV's budding process, viral particle production was tested (FIG. 15). […] Addition of N16 at 24 hr post-transfection had little effect on budding even at higher concentrations (FIG. 15A, bottom). […] After 15 days, virus production was reduced by 15-fold. Cell viability was maintained under these conditions of sustained drug exposure as indicated by trypan blue viability assay every 3rd day. […] Following the re-addition of N16 to the media, virus titer at this point was reduced 50-fold 4 days indicating maintenance of drug susceptibility.

HIV-1 NL4-3 P7L = experiment: Electron microscopy of budding morphologies, WT- or P7L-NL4-3; format: cell-based; details: 50 μM N16
Experimental: FIG. 15A-D. N16 inhibits HIV-1 NL4-3 and Gag VLP production. A) Effect on virus production. Virus particles from N16-treated 293T cells transfected with pNL4-3 as determined by ELISA assay. Top, The compound was added 6 hr prior to DNA transfection and tissue culture media was harvested 24 hr later. Bottom, The compound was added at the indicated concentration 24 hr after DNA transfection and tissue culture media was harvested 24 hr later. Assay values were normalized to that of the DMSO carrier control. B) Effect on virus infectivity. Infectious viral particles per ng p24 as determined by MAGI assay. C) Left, Electron microscopy of particles at cell surface at 24 hr post-N16 addition; Right, Quantitative analysis of budding morphologies. Cells expressing WT- or P7L-NL4-3 were exposed to DMSO carrier or 50 μM N16. Arrows indicate emerging ‘Early’ buds. D) Effects on Gag VLP production. Top, Western blot analysis. Cells treated at the indicated concentration were transfected with DNA encoding Gag-HA. […] Bottom, Quantitative analysis. […]
Electron microscopy was used to identify the event arrested by N16 treatment. […] Treatment of P7L with N16 blocked the residual particle release that the mutation permits (mediated by Alix, an ESCRT adaptor, Fujii, K. et al. (2009)) and shifted the predominant form detected from ‘Tethered’ to ‘Early’.

COc1ccc2[nH]c([S+]([O-])Cc3ncc(C)c(OC)c3C)nc2n1 (stereo not drawn) [N16, tenatoprazole]
reduction of virus production (HIV-1 NL4-3; 50 μM N16, Jurkat cells, peak values / after 15 days): 15 fold | time of peak virus production (HIV-1 NL4-3; 50 μM N16, control peaked at day 11): 13 days | resurgence of virus when N16 removed (HIV-1 NL4-3; media without inhibitor, 4 days (day 15 to 19)): 10 fold | reduction of virus on re-addition of N16 (HIV-1 NL4-3; re-addition of N16, 4 days (to day 23)): 50 fold | cell viability, trypan blue assay (HIV-1 NL4-3; sustained drug exposure, every 3rd day): maintained | residual particle release of P7L (HIV-1 NL4-3 P7L): blocked
